Measured values published in patent US20110207723A1, “NOVEL FUSED AMINODIHYDROTHIAZINE DERIVATIVE” (EISAI R&D MANAGEMENT CO., LTD., priority 2008, published 2011).

Tested on: Aβ42 production
Experiment: Quantification of Aβ peptide in culture of neurons from rat fetus brain (Aβ42 ELISA)
Format: cell-based
Settings: Neuron, 72 h, rat primary neuronal culture (embryonic day 18 Wistar rat cerebral cortex), medium collected three days after addition of compound, read-out: Aβ42 production reducing effect IC50
Procedure: Quantification of Aβ Peptide in Culture of Neurons from Rat Fetus Brain
Primary neuronal cultures were prepared from the cerebral cortex of embryonic day 18 Wistar rats (Charles River Japan, Yokohama, Japan). Specifically, the embryos were aseptically removed from pregnant rats under ether anesthesia. The brain was isolated from the embryo and immersed in an ice-cold L-15 medium (such as Invitrogen Corp. Cat #11415-064, Carlsbad, Calif., USA, or SIGMA L1518). The cerebral cortex was collected from the isolated brain under a stereoscopic microscope. The cerebral cortex fragments collected were enzymatically treated in an enzyme solution containing 0.25% trypsin (Invitrogen Corp. Cat #15050-065, Carlsbad, Calif., USA) and 0.01% DNase (Sigma D5025, St. Louis, Mo., USA) at 37° C. for 30 minutes to disperse the cells. Here, the enzymatic reaction was stopped by adding inactivated horse serum to the solution. The enzymatically treated solution was centrifuged at 1,500 rpm for five minutes to remove the supernatant. 5 to 10 ml of a medium was added to the resulting cell mass. Neurobasal medium (Invitrogen Corp. Cat #21103-049, Carlsbad, Calif., USA) supplemented with 2% B27 supplement (Invitrogen Corp. Cat #17504-044, Carlsbad, Calif., USA), 25 μM 2-mercaptoethanol (2-ME, WAKO Cat #139-06861, Osaka, Japan), 0.5 mM L-glutamine (Invitrogen Corp. Cat #25030-081, Carlsbad, Calif., USA), and Antibiotics-Antimycotics (Invitrogen Corp. Cat #15240-062, Carlsbad, Calif., USA) was used as the medium (Neurobasal/B27/2-ME). However, the above Neurobasal medium not supplemented with 2-ME (Neurobasal/B27) was used for the assay. The cells were redispersed by mild pipetting of the cell mass to which the medium was added. The cell dispersion was filtered through a 40-μm nylon mesh (Cell Strainer, Cat #35-2340, Becton Dickinson Labware, Franklin Lakes, N.J., USA) to remove the remaining cell mass, and thus a neuronal cell suspension was obtained. The neuronal cell suspension was diluted with the medium and then plated in a volume of 100 μl/well at an initial cell density of 5×10^5 cells/cm^2 in a 96-well polystyrene culture plate pre-coated with poly-L or D-lysine (Falcon Cat #35-3075, Becton Dickinson Labware, Franklin Lakes, N.J., USA coated with poly-L-lysine using the method shown below, or BIOCOAT™ cell environments Poly-D-lysine cell ware 96-well plate, Cat #35-6461, Becton Dickinson Labware, Franklin Lakes, N.J., USA). Poly-L-lysine coating was carried out as follows. 100 μg/ml of a poly-L-lysine (SIGMA P2636, St. Louis, Mo., USA) solution was aseptically prepared with a 0.15 M borate buffer (pH 8.5). […] of the solution was added to the 96-well polystyrene culture plate and incubated at room temperature for one or more hours or at 4° C. overnight or longer. Thereafter, the coated 96-well polystyrene culture plate was washed with sterile water four or more times, and then dried or rinsed with, for example, sterile PBS or medium, and used for cell plating. The plated cells were cultured in the culture plate at 37° C. in 5% CO2-95% air for one day. Then, the total amount of the medium was replaced with a fresh Neurobasal/B27/2-ME medium, and then the cells were cultured for further three days.
The drug was added to the culture plate on Day 4 of culture as follows. The total amount of the medium was removed from the wells, and 180 μl/well of Neurobasal medium not containing 2-ME and containing 2% B-27 (Neurobasal/B27) was added thereto. A solution of the test compound in dimethyl sulfoxide (hereinafter abbreviated as DMSO) was diluted with Neurobasal/B27 to a concentration 10-fold higher than the final concentration. 20 μl/well of the dilution was added to and sufficiently mixed with the medium. The final DMSO concentration was 1% or less. Only DMSO was added to the control group.
The cells were cultured for three days after addition of the compound, and the total amount of the medium was collected. […]

Structure (SMILES) | IC50 [nM]
C[C@@H]1COC[C@]2(c3cc(NC(=O)c4ccc(C#N)cn4)ccc3F)N=C(N)SC[C@H]12 (relative stereo) [Example 24, N-[3-((4aR*,5S*,8aS*)-2-amino-5-methyl-4,4a,5,6-tetrahydro-7-oxa-3-thia-1-azanaphthalen-8a-yl)-4-fluorophenyl]-5-cyanopyridine-2-carboxamide] | 9
NC1=N[C@@]2(c3cc(NC(=O)c4ccc(OC(F)F)cn4)ccc3F)COC[C@@H](F)[C@H]2CS1 [Example 20, N-[3-((4aS,5S,8aS)-2-amino-5-fluoro-4,4a,5,6-tetrahydro-7-oxa-3-thia-1-azanaphthalen-8a-yl)-4-fluorophenyl]-5-difluoromethoxypyridine-2-carboxamide] | 9
NC1=N[C@@]2(c3cc(NC(=O)c4ccc(C(F)(F)F)cn4)ccc3F)COCC[C@H]2CS1 (single isomer, unassigned) [Example 55, N-[3-((4aR*,8aS*)-2-amino-4,4a,5,6-tetrahydro-7-oxa-3-thia-1-azanaphthalen-8a-yl)-4-fluorophenyl]-5-trifluoromethylpyridine-2-carboxamide] | 1.4
C[C@H]1COC[C@]2(c3cc(NC(=O)c4ccc(C#N)cn4)ccc3F)N=C(N)SC[C@H]12 (relative stereo) [Example 27, N-[3-((4aR*,5R*,8aS*)-2-amino-5-methyl-4,4a,5,6-tetrahydro-7-oxa-3-thia-1-azanaphthalen-8a-yl)-4-fluorophenyl]-5-cyanopyridine-2-carboxamide] | 8
NC1=N[C@@]2(c3cc(NC(=O)c4ccc(Cl)cn4)ccc3OC(F)(F)F)COCC[C@H]2CS1 (single isomer, unassigned) [Example 5, N-[3-((8S*,8aS*)-2-amino-4,4a,5,6-tetrahydro-7-oxa-3-thia-1-azanaphthalen-8a-yl)-4-trifluoromethoxyphenyl]-5-chloropyridine-2-carboxamide] | 58
NC1=N[C@@]2(c3cc(NC(=O)c4ccc(F)cn4)ccc3F)CO[C@@H](C(F)(F)F)C[C@H]2CS1 (relative stereo) [Example 37, N-[3-((4aR*,6R*,8aS*)-2-amino-6-trifluoromethyl-4,4a,5,6-tetrahydro-7-oxa-3-thia-1-azanaphthlen-8a-yl)-4-fluorophenyl]-5-fluoropyriidne-2-carboxamide] | 2
NC1=N[C@@]2(c3cc(NC(=O)c4ccc(OC(F)F)cn4)ccc3F)CO[C@@H](C(F)(F)F)C[C@H]2CS1 (relative stereo) [Example 42, N-[3-((4aR*,6R*,8aS*)-2-amino-6-trifluoromethyl-4,4a,5,6-tetrahydro-7-oxa-3-thia-1-azanaphthalen-8a-yl)-4-fluorophenyl]-5-difluoromethoxypyridine-2-carboxamide] | 0.9
NC1=N[C@@]2(c3cc(-c4cccnc4F)ccc3F)CO[C@@H](COCc3ccccc3)C[C@H]2CS1 [Example 66, (4aR,6R,8aS)-8a-[2-fluoro-5-(2-fluoropyridin-3-yl)phenyl]-6-benzyloxymethyl-4,4a,5,6,8,8a-hexahydro-7-oxa-3-thia-1-azanaphthalen-2-ylamine] | 263
C[C@H]1SC(N)=N[C@@]2(c3cc(NC(=O)c4ccc(C#N)cn4)ccc3F)COCC[C@@H]12 (relative stereo) [Example 31, N-[3-((2R*,4aR*,8aS*)-2-amino-4-methyl-4,4a,5,6-tetrahydro-7-oxa-3-thia-1-azanaphthalen-8a-yl)-4-fluorophenyl]-5-cyanopyridine-2-carboxamide] | 1.9
COC[C@H]1C[C@H]2CSC(N)=N[C@@]2(c2cc(NC(=O)c3ccc(Cl)cn3)ccc2F)CO1 (relative stereo) [Example 13, N-[3-((4aR*,6R*,8aS*)-2-amino-6-methoxymethyl-4,4a,5,6-tetrahydro-7-oxa-3-thia-1-azanaphthalen-8a-yl)-4-fluorophenyl]-5-chloropyridine-2-carboxamide] | 1
NC1=N[C@@]2(c3cc(NC(=O)c4ccc(C(F)(F)F)cn4)ccc3F)COC[C@@H](F)[C@H]2CS1 [Example 19, N-[3-((4aS,5S,8aS)-2-amino-5-fluoro-4,4a,5,6-tetrahydro-7-oxa-3-thia-1-azanaphthalen-8a-yl)-4-fluorophenyl]-5-trifluoromethylpyridine-2-carboxamide] | 2
NC1=N[C@@]2(c3cc(NC(=O)c4ncc(F)cc4F)ccc3F)COCC[C@H]2CS1 (single isomer, unassigned) [Example 51, N-[3-((4aR*,8aS*)-2-amino-4,4a,5,6-tetrahydro-7-oxa-3-thia-1-azanaphthalen-8a-yl)-4-fluorophenyl]-3,5-difluoropyridine-2-carboxamide] | 6
NC1=N[C@@]2(c3cc(NC(=O)c4ccc(Cl)cn4)ccc3F)CO[C@@H](CO)C[C@H]2CS1 [Example 33, N-[3-((4aR,6R,8aS)-2-amino-6-hydroxymethyl-4,4a,5,6-tetrahydro-7-oxa-3-thia-1-azanaphthalen-8a-yl)-4-fluorophenyl]-5-chloropyridine-2-carboxamide] | 1.1
NC1=N[C@@]2(c3cc(NC(=O)c4cnc(OC(F)F)cn4)ccc3F)COCC[C@H]2CS1 (relative stereo) [Example 3, N-[3-((4aR*,8aS*)-2-amino-4,4a,5,6-tetrahydro-7-oxa-3-thia-1-azanaphthalen-8a-yl)-4-fluorophenyl]-5-difluoromethoxypyrazine-2-carboxamide] | 1
NC1=N[C@@]2(c3cc(NC(=O)c4ccc(OC(F)F)cn4)ccc3F)COCC[C@H]2CS1 (single isomer, unassigned) [Example 58, N-[3-((4aR*,8aS*)-2-amino-4,4a,5,6-tetrahydro-7-oxa-3-thia-1-azanaphthalen-8a-yl)-4-fluorophenyl]-5-difluoromethoxypyridine-2-carboxamide] | 4
C[C@H]1COC[C@]2(c3cc(NC(=O)c4ccc(Cl)cn4)ccc3F)N=C(N)SC[C@H]12 (relative stereo) [Example 26, N-[3-((4aR*,5R*,8aS*)-2-amino-5-methyl-4,4a,5,6-tetrahydro-7-oxa-3-thia-1-azanaphthalen-8a-yl)-4-fluorophenyl]-5-chloropyridine-2-carboxamide] | 3
NC1=N[C@@]2(c3cc(-c4cccnc4F)cs3)COCC[C@H]2CS1 (racemic) [Example 65, (±)-(4aR*,8aR*1-8a-[4-(2-fluoropyridin-3-yl)-thiophen-2-yl]-4,4a,5,6,8,8a-hexahydro-7-oxa-3-thia-1-azanaphthalen-2-ylamine] | 370
N#Cc1ccc(C(=O)Nc2ccc(F)c([C@]34COC[C@@H](F)[C@H]3CSC(N)=N4)c2)nc1 [Example 16, N-[3-((4aS,5S,8aS)-2-amino-5-fluoro-4,4a,5,6-tetrahydro-7-oxa-3-thia-1-azanaphthalen-8a-yl)-4-fluorophenyl]-5-cyanopyridine-2-carboxamide] | 1.1
COC[C@H]1C[C@H]2CSC(N)=N[C@@]2(c2cc(NC(=O)c3ccc(C#N)cn3)ccc2F)CO1 (relative stereo) [Example 11, N-[3-((4aR*,6R*,8aS*)-2-amino-6-methoxymethyl-4,4a,5,6-tetrahydro-7-oxa-3-thia-1-azanaphthalen-8a-yl)-4-fluorophenyl]-5-cyanopyridine-2-carboxamide] | 0.7
